# Results: ChEMBL document CHEMBL4402613, “Targeting ALK2: An Open Science Approach to Developing Therapeutics for the Treatment of Diffuse Intrinsic Pontine Glioma” (J Med Chem, 2020)
# Activity calls are given as the source filed them. No cut-off for these calls is given here.
# Legend:
# [1] = mouse, in vivo, po, 10 mg/kg, 24 h
# Description: Half life in CB17 SCID mouse at 10 mg/kg, po measured up to 24 hrs by LC-MS/MS analysis
# [2] = molecular target: Activin receptor type-1-like (Homo sapiens) (UniProt P37023); assay: Inhibition of ALK1 (unknown origin) at 1 uM
# in vitro = settings: human, Caco-2
# Description: Apparent permeability across basolateral to apical membrane in human Caco2 cells at 5 uM incubated for 120 mins in orbital shaker by LC-QTOF/MS analysis
# [3] = molecular target: Bone morphogenetic protein receptor type-1B (Homo sapiens) (UniProt O00238); assay: Inhibition of ALK6 (unknown origin) at 1 uM
# Bone morphogenetic protein receptor type-1B (Homo sapiens), sequence (O00238 whole entry): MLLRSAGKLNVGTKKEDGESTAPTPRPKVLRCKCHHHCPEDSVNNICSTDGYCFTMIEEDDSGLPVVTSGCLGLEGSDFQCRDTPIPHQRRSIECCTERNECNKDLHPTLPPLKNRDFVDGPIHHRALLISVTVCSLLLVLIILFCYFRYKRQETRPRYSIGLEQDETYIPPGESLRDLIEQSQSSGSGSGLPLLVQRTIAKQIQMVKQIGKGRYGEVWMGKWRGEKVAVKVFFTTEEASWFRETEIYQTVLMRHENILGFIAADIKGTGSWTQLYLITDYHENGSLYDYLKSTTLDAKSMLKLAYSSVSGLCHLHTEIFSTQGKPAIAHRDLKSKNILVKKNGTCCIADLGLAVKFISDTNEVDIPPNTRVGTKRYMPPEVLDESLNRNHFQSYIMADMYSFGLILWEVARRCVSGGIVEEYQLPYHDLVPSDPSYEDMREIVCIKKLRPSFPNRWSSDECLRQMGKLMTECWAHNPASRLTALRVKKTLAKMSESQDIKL
# [4] = mouse, brain, po, 100 mg/kg, 4 h
# Description: Ratio of total drug concentration from brain to plasma in CB17 SCID mouse at 100 mg/kg, po measured after 4 hrs
# Activin receptor type-1 [5] = molecular target: Activin receptor type-1 (Homo sapiens, UniProt Q04771, R258G); assay: Inhibition of ALK2 R258G mutant (unknown origin)
# Activin receptor type-1 (Homo sapiens, UniProt Q04771, R258G), sequence (Q04771 21-509 R258G limits assumed): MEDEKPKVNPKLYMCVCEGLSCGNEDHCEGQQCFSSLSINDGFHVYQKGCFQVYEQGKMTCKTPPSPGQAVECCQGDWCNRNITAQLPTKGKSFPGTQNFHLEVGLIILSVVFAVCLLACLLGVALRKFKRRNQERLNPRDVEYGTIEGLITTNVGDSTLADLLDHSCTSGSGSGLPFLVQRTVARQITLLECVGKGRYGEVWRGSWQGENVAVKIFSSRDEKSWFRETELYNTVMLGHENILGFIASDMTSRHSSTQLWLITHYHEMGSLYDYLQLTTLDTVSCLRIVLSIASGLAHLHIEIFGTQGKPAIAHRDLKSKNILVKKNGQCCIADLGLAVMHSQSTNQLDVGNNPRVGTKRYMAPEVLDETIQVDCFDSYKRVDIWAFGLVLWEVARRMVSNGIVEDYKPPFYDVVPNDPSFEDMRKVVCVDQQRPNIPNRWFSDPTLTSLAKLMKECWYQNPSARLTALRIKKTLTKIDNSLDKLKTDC
# Activin receptor type-1 [6] = molecular target: Activin receptor type-1 (Homo sapiens, UniProt Q04771, G328V); assay: Inhibition of ALK2 G328V mutant (unknown origin)
# Activin receptor type-1 (Homo sapiens, UniProt Q04771, G328V), sequence (Q04771 21-509 G328V limits assumed): as the sequence (Q04771 21-509 R258G limits assumed) above, with G238R, G308V counted along it
# [7] = molecular target: Bone morphogenetic protein receptor type-1A (Homo sapiens) (UniProt P36894); assay: Inhibition of ALK3 (unknown origin) at 1 uM
# Bone morphogenetic protein receptor type-1A (Homo sapiens), sequence (P36894 whole entry): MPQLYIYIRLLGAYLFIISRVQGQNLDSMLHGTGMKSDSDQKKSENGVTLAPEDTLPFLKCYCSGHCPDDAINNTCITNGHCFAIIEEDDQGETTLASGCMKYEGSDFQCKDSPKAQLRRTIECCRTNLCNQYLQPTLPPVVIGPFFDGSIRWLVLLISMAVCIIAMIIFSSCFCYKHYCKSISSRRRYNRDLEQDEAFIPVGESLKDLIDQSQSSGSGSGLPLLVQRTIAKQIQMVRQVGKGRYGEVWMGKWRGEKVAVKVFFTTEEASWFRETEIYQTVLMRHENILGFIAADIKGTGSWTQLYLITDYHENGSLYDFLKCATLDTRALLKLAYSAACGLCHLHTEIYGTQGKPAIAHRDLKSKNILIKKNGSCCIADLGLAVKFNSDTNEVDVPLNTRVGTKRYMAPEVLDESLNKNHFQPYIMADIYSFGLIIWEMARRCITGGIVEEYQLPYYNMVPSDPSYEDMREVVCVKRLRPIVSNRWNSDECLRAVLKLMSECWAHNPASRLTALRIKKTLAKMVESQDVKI
# [8] = mouse, in vivo, po, 10 mg/kg, 24 h; remark: listed apart in the source
# [9] = molecular target: Misshapen-like kinase 1 (Homo sapiens) (UniProt Q8N4C8); assay: Inhibition of MINK (unknown origin) at 1 uM
# Misshapen-like kinase 1 (Homo sapiens), sequence (Q8N4C8 whole entry, looked up): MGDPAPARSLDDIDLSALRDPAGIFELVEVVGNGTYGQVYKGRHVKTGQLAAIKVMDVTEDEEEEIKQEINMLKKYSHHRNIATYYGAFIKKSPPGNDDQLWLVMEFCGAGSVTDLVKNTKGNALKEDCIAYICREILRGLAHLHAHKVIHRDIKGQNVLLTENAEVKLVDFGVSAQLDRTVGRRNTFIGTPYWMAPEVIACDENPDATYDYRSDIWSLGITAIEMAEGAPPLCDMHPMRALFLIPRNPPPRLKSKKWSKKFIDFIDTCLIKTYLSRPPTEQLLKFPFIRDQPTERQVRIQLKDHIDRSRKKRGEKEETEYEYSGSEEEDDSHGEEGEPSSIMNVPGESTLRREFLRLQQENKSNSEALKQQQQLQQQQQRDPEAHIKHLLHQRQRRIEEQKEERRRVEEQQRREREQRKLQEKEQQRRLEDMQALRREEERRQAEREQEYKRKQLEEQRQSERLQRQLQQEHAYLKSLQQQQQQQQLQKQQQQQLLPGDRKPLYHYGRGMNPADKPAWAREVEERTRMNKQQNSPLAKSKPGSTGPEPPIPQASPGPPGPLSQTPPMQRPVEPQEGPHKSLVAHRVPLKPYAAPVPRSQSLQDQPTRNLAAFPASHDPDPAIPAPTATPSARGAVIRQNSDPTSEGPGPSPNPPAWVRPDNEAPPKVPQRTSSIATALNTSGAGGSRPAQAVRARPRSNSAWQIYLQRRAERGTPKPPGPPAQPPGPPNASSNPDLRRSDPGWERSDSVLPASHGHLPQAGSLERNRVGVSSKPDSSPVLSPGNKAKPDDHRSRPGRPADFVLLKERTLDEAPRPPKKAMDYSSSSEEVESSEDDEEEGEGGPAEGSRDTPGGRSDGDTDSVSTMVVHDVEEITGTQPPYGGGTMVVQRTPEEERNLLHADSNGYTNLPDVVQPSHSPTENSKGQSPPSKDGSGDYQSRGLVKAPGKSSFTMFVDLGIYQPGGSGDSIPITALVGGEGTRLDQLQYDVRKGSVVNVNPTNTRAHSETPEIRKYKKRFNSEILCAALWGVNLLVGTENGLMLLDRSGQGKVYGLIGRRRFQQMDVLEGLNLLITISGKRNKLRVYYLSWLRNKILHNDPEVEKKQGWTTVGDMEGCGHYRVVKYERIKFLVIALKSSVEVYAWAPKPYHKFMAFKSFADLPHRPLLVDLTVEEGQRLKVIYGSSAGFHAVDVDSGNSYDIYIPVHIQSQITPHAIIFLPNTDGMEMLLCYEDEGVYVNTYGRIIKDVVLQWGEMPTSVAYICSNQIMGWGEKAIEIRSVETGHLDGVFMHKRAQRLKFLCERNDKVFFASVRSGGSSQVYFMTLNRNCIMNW
# [10] = molecular target: Mitogen-activated protein kinase kinase kinase kinase 4 (Homo sapiens) (UniProt O95819); assay: Inhibition of MAP4K4 (unknown origin) at 1 uM
# [11] = molecular target: Voltage-gated inwardly rectifying potassium channel KCNH2 (Homo sapiens, UniProt Q12809)
# Voltage-gated inwardly rectifying potassium channel KCNH2, sequence (Q12809 whole entry): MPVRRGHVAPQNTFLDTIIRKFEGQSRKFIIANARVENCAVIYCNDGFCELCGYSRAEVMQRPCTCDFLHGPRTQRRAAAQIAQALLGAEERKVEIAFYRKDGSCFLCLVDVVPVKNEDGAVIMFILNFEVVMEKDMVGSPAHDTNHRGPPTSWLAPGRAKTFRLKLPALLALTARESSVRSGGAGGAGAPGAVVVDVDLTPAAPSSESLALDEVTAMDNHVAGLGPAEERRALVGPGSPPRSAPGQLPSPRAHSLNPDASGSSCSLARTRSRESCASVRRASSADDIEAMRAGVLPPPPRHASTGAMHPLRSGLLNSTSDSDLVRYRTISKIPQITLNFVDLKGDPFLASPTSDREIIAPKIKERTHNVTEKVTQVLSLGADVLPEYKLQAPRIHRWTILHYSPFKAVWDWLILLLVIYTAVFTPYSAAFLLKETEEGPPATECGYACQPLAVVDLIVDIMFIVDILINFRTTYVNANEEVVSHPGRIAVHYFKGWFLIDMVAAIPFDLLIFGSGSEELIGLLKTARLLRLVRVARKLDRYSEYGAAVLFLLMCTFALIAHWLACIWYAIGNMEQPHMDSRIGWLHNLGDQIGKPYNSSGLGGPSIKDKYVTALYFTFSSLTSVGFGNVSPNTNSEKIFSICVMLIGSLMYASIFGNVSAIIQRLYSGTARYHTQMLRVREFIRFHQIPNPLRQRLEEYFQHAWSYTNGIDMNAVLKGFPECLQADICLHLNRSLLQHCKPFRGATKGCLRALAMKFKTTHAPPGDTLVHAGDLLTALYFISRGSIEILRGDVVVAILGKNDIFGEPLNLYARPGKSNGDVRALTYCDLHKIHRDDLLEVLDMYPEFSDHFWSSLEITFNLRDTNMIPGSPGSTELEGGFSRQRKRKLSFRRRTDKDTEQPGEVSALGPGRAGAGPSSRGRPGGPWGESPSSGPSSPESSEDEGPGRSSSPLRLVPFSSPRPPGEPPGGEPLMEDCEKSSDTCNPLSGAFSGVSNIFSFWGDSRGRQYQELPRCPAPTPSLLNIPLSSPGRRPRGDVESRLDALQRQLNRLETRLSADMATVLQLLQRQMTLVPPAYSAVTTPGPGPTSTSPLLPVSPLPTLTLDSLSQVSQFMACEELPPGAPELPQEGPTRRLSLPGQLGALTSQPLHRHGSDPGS
# Description: Inhibition of human ERG expressed in HEK293 cells measured after 5 mins by whole cell patch clamp method
# Activin receptor type-1 [12] = molecular target: Activin receptor type-1 (Homo sapiens, UniProt Q04771, R206H); assay: Inhibition of human ALK2 R206H mutant using casein as substrate in presence of 10 uM [gamma33P] ATP by radioactive assay
# Activin receptor type-1 (Homo sapiens, UniProt Q04771, R206H), sequence (Q04771 21-509 R206H limits assumed): as the sequence (Q04771 21-509 R258G limits assumed) above, with R186H, G238R counted along it
# Activin receptor type-1 [13] = molecular target: T1, Activin receptor type-1 (Homo sapiens, UniProt Q04771); assay: Inhibition of C-terminal nanoluciferase-fused ALK2 (unknown origin) expressed in HEK293 cells incubated for 2 hrs followed by NanoBRET NanoGlo Substrate addition by NanoBRET assay; assay type: cell-based
# T1 sequence (Q04771 whole entry): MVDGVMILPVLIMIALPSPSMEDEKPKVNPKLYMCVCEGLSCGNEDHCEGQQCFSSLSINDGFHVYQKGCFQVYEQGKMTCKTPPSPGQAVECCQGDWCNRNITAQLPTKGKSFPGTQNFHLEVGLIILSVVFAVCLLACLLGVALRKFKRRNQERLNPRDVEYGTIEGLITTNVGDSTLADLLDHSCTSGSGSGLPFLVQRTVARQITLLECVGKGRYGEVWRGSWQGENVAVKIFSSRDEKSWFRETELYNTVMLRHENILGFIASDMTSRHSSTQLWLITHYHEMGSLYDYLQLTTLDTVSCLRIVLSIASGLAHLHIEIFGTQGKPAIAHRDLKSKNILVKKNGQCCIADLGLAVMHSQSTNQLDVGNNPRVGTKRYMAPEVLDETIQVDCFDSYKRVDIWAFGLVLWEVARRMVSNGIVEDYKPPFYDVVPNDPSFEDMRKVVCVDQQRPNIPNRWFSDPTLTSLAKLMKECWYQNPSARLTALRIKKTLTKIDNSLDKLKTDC
# [14] = molecular target: T2, Non-receptor tyrosine-protein kinase TNK1 (Homo sapiens) (UniProt Q13470); assay: Inhibition of TNK1 (unknown origin) at 1 uM
# T2 sequence (whole entry): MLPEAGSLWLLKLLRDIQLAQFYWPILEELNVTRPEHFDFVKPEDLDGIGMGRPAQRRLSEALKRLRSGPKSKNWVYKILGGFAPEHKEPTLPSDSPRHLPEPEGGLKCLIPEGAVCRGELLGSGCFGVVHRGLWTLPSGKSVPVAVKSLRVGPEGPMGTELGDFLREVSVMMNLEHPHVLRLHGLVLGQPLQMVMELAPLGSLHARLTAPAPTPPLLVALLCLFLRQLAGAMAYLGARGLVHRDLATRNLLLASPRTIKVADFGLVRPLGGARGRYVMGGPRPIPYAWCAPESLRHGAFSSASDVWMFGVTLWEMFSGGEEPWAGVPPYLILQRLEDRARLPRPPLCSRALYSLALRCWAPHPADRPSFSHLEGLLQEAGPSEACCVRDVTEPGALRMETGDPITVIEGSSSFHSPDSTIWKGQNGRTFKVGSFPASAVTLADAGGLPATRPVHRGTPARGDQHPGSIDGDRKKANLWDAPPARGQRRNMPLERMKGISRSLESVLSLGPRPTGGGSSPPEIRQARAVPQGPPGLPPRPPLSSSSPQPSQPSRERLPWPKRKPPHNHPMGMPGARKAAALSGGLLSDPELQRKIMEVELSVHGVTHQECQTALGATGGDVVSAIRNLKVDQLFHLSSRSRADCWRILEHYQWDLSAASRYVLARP
# [15] = human, microsomes, 1 h, 1 µM
# Description: Microsomal stability in human liver microsomes assessed as parent compound remaining at 1 uM and 37 degree C measured after 60 mins in presence of NADP+ by LC-QTOF/MS analysis
# TGF-beta receptor type-1 = molecular target: T3, TGF-beta receptor type-1 (Homo sapiens, UniProt P36897); assay type: cell-based, HEK293
# T3 sequence (P36897 whole entry): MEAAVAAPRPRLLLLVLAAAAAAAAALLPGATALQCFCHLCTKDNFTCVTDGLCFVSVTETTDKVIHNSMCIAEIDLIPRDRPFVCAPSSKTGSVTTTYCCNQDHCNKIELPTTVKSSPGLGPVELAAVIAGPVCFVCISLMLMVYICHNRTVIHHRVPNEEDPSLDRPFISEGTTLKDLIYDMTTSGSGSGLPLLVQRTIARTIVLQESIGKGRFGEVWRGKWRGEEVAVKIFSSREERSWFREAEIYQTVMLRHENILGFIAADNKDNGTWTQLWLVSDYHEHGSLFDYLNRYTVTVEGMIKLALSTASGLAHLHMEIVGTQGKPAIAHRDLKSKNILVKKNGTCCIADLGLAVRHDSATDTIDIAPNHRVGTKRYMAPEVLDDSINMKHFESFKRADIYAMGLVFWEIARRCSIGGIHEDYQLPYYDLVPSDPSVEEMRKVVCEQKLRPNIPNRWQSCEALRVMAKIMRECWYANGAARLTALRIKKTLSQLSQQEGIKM
# Description: Inhibition of ALK5 (unknown origin) expressed in HEK293 cells transfected with CAGA-luciferase and Renilla luciferase reporter measured after 24 hrs by dual luciferase reporter assay
# Activin receptor type-1-like (Homo sapiens), sequence (P37023 whole entry): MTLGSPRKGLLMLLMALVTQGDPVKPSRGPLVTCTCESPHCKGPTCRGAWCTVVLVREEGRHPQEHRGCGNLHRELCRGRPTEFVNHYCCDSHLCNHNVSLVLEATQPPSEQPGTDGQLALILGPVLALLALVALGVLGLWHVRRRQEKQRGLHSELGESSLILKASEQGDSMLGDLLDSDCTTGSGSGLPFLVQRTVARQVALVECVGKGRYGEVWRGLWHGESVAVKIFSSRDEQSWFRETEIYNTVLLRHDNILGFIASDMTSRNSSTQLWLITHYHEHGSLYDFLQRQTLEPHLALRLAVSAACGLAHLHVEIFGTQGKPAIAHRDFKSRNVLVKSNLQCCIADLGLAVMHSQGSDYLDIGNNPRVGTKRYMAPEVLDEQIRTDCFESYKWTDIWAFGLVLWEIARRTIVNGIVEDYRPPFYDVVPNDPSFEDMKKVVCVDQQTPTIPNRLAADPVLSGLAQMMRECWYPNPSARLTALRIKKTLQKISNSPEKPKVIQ
smiles,measurement,setting,value
COc1cc(-c2cncc(-c3ccc(N4CCN(C)CC4)cc3)c2C)cc(F)c1C(N)=O,t1/2,[1],2.56 h
same,inhibition,[2],Active
same,"Papp B→A at 2 h, 5 µM",in vitro,16.2 ×10⁻⁶ cm/s
same,inhibition,[3],Active
same,BPR,[4],0.178
same,IC50,Activin receptor type-1 [5],17 nM
same,IC50,Activin receptor type-1 [6],16 nM
same,inhibition,[7],Active
same,AUC,[8],4056 ng·h/mL
same,inhibition,[9],Active
same,inhibition,[10],Active
same,IC50,[11],> 30000 nM
same,IC50,Activin receptor type-1 [12],19 nM
same,IC50,Activin receptor type-1 [13],93 nM
same,inhibition,[14],Active
same,Stability,[15],Stable
same,IC50,TGF-beta receptor type-1,4300 nM
